From patent US20020026053A1, “Novel 3-(substituted) -2- indolinones compounds and use thereof as inhibitors of protein kinase activity” (priority 1997, published 2002) come the findings set out here.

The experiment deals with FLK-1 receptor. The experiment can be described thus: FLK-1 Assay (cellular/catalytic ELISA, VEGF-stimulated phosphotyrosine). It counts as cell-based. Set-up: concentration or dose not given beside the values. Put shortly:
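NIH3T3 C7#3 cells engineered to express Flk-1 were serum-starved overnight (0.1% FBS), then exposed to compound for 2 h at 37 °C (final dilution 1:200, 0.5% DMSO) before VEGF stimulation. Lysates captured on anti-FLK-1 antiserum plates; phosphotyrosine detected by UB40 antibody/POD-ABTS ELISA versus untreated controls.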

As to `Cc1c(Br)cc(Br)c2c1C(=Cc1ccc(O)cc1)C(=O)N2` [10719/H07], the “Flk Kinase % Inhibition (P.110)” value turned out to be 2.4%.

Turning to `Cc1c(Br)cc(Br)c2c1C(=Cc1ccc(N(C)C)cc1)C(=O)N2` [10719/H08], the “Flk Kinase % Inhibition (P.110)” value was 11.6%.

As for `Cc1c(Br)cc(Br)c2c1C(=Cc1ccc(F)cc1Cl)C(=O)N2` [10719/H09], the “Flk Kinase % Inhibition (P.110)” value was found to be 2.5%.

For the molecule `Cc1c(Br)cc(Br)c2c1C(=Cc1cccc([N+](=O)[O-])c1)C(=O)N2` [10719/H10], the “Flk Kinase % Inhibition (P.110)” value was −0.7%.

`Cc1c(Br)cc(Br)c2c1C(=Cc1ccc(F)cc1C(F)(F)F)C(=O)N2` [10719/H11]: the “Flk Kinase % Inhibition (P.110)” value stood at 12.3%.

Regarding `Cc1c(Br)cc(Br)c2c1C(=Cc1c(F)cc(F)cc1F)C(=O)N2` [10720/H02], the “Flk Kinase % Inhibition (P.110)” value turned out to be 9.7%.

Take `COc1cc(O)ccc1C=C1C(=O)Nc2c(Br)cc(Br)c(C)c21` [10720/H03]: the “Flk Kinase % Inhibition (P.110)” value is listed as 1.8%.

As for `N#Cc1ccccc1C=C1C(=O)Nc2ccc(CCCl)cc21` [10735/G07], the “Flk Kinase % Inhibition (P.110)” value stood at 17.6%.

As for `O=C1Nc2ccc(CCCl)cc2C1=Cc1c(F)cccc1F` [10735/G08], the “Flk Kinase % Inhibition (P.110)” value is 10.9%.

In the case of `O=C1Nc2ccc(CCCl)cc2C1=Cc1cccc2ccccc12` [10735/G09], the “Flk Kinase % Inhibition (P.110)” value was found to be 15.9%.

Take `O=C1Nc2ccc(CCCl)cc2C1=Cc1ccc(Cl)cc1Cl` [10735/G10]: the “Flk Kinase % Inhibition (P.110)” value is listed as 6.8%.

As to `O=C1Nc2ccc(CCCl)cc2C1=Cc1ccc(-c2ccccc2)cc1` [10735/G11], the “Flk Kinase % Inhibition (P.110)” value came out at 10.1%.

As for `Cc1ccccc1C=C1C(=O)Nc2c(Br)cc(Br)c(C)c21` [10735/H02], the “Flk Kinase % Inhibition (P.110)” value is 14.5%.

Turning to `Cc1c(Br)cc(Br)c2c1C(=Cc1ccc(F)c(F)c1)C(=O)N2` [10735/H03], the “Flk Kinase % Inhibition (P.110)” value is on record as 7.4%.

For `Cc1c(Br)cc(Br)c2c1C(=Cc1cc(F)cc(F)c1)C(=O)N2` [10735/H04], the “Flk Kinase % Inhibition (P.110)” value was 12.8%.

Take `Cc1c(Br)cc(Br)c2c1C(=Cc1cccc(C(F)(F)F)c1)C(=O)N2` [10735/H05]: the “Flk Kinase % Inhibition (P.110)” value amounted to 29.5%.

As for `Cc1c(Br)cc(Br)c2c1C(=Cc1cc(C(F)(F)F)cc(C(F)(F)F)c1)C(=O)N2` [10735/H06], the “Flk Kinase % Inhibition (P.110)” value is listed as 25.9%.

As for `Cc1c(Br)cc(Br)c2c1C(=Cc1ccccc1C#N)C(=O)N2` [10735/H07], the “Flk Kinase % Inhibition (P.110)” value is recorded as 21.4%.

In the case of `Cc1c(Br)cc(Br)c2c1C(=Cc1c(F)cccc1F)C(=O)N2` [10735/H08], the “Flk Kinase % Inhibition (P.110)” value was found to be 29.1%.

Consider `Cc1c(Br)cc(Br)c2c1C(=Cc1cccc3ccccc13)C(=O)N2` [10735/H09], for which the “Flk Kinase % Inhibition (P.110)” value is 20.6%.

Consider `Cc1c(Br)cc(Br)c2c1C(=Cc1ccc(Cl)cc1Cl)C(=O)N2` [10735/H10], for which the “Flk Kinase % Inhibition (P.110)” value is 24.0%.

Consider `Cc1c(Br)cc(Br)c2c1C(=Cc1ccc(-c3ccccc3)cc1)C(=O)N2` [10735/H11], for which the “Flk Kinase % Inhibition (P.110)” value is given as 28.3%.

With `O=C1Nc2c(Br)cc(Br)cc2C1=Cc1ccc(Cl)cc1` [10736/A02], the “Flk Kinase % Inhibition (P.110)” value is −6.0%.

For the molecule `O=C1Nc2c(Br)cc(Br)cc2C1=Cc1ccccc1C(F)(F)F` [10736/A03], the “Flk Kinase % Inhibition (P.110)” value was 5.7%.

Take `Cc1cccc(C=C2C(=O)Nc3c(Br)cc(Br)cc32)c1` [10736/A04]: the “Flk Kinase % Inhibition (P.110)” value is given as −13.0%.

Take `Cc1ccc(C=C2C(=O)Nc3c(Br)cc(Br)cc32)cc1` [10736/A05]: the “Flk Kinase % Inhibition (P.110)” value is on record as −19.4%.

On to `O=C1Nc2c(Br)cc(Br)cc2C1=Cc1cccc(Cl)c1` [10736/A06], for which the “Flk Kinase % Inhibition (P.110)” value is on record as −18.2%.

On to `O=C1Nc2c(Br)cc(Br)cc2C1=Cc1cccc(F)c1` [10736/A07], for which the “Flk Kinase % Inhibition (P.110)” value was −12.6%.

For the molecule `O=C1Nc2c(Br)cc(Br)cc2C1=Cc1ccccc1F` [10736/A08], the “Flk Kinase % Inhibition (P.110)” value was −13.4%.

As to `CCc1ccc(C=C2C(=O)Nc3c(Br)cc(Br)cc32)cc1` [10736/A09], the “Flk Kinase % Inhibition (P.110)” value is −8.7%.

Consider `COc1cccc(C=C2C(=O)Nc3c(Br)cc(Br)cc32)c1` [10736/A10], for which the “Flk Kinase % Inhibition (P.110)” value is −11.0%.

As to `O=C1Nc2c(Br)cc(Br)cc2C1=Cc1ccccc1Cl` [10736/A11], the “Flk Kinase % Inhibition (P.110)” value is −12.4%.

As to `O=C1Nc2ccc(I)cc2C1=Cc1ccc(Cl)cc1` [10736/B02], the “Flk Kinase % Inhibition (P.110)” value worked out at 1.0%.

In the case of `O=C1Nc2ccc(I)cc2C1=Cc1ccccc1C(F)(F)F` [10736/B03], the “Flk Kinase % Inhibition (P.110)” value worked out at 11.3%.

On to `Cc1cccc(C=C2C(=O)Nc3ccc(I)cc32)c1` [10736/B04], for which the “Flk Kinase % Inhibition (P.110)” value is on record as 3.0%.

Take `Cc1ccc(C=C2C(=O)Nc3ccc(I)cc32)cc1` [10736/B05]: the “Flk Kinase % Inhibition (P.110)” value is −0.5%.

Turning to `O=C1Nc2ccc(I)cc2C1=Cc1cccc(Cl)c1` [10736/B06], the “Flk Kinase % Inhibition (P.110)” value is reported as 3.8%.

For the molecule `O=C1Nc2ccc(I)cc2C1=Cc1cccc(F)c1` [10736/B07], the “Flk Kinase % Inhibition (P.110)” value is 4.0%.

As to `O=C1Nc2ccc(I)cc2C1=Cc1ccccc1F` [10736/B08], the “Flk Kinase % Inhibition (P.110)” value turned out to be 5.0%.

`CCc1ccc(C=C2C(=O)Nc3ccc(I)cc32)cc1` [10736/B09]: the “Flk Kinase % Inhibition (P.110)” value is 8.0%.

Consider `COc1cccc(C=C2C(=O)Nc3ccc(I)cc32)c1` [10736/B10], for which the “Flk Kinase % Inhibition (P.110)” value is on record as 2.5%.

As for `O=C1Nc2ccc(I)cc2C1=Cc1ccccc1Cl` [10736/B11], the “Flk Kinase % Inhibition (P.110)” value stood at 7.3%.

Consider `Cc1c(Br)ccc2c1C(=Cc1ccc(Cl)cc1)C(=O)N2` [10736/C02], for which the “Flk Kinase % Inhibition (P.110)” value is reported as −0.9%.

Consider `Cc1c(Br)ccc2c1C(=Cc1ccccc1C(F)(F)F)C(=O)N2` [10736/C03], for which the “Flk Kinase % Inhibition (P.110)” value came to 6.5%.

As for `Cc1cccc(C=C2C(=O)Nc3ccc(Br)c(C)c32)c1` [10736/C04], the “Flk Kinase % Inhibition (P.110)” value was 2.8%.

For `Cc1ccc(C=C2C(=O)Nc3ccc(Br)c(C)c32)cc1` [10736/C05], the “Flk Kinase % Inhibition (P.110)” value is 4.6%.

As to `Cc1c(Br)ccc2c1C(=Cc1cccc(Cl)c1)C(=O)N2` [10736/C06], the “Flk Kinase % Inhibition (P.110)” value was found to be 6.2%.

Regarding `Cc1c(Br)ccc2c1C(=Cc1cccc(F)c1)C(=O)N2` [10736/C07], the “Flk Kinase % Inhibition (P.110)” value is listed as 4.4%.

As to `Cc1c(Br)ccc2c1C(=Cc1ccccc1F)C(=O)N2` [10736/C08], the “Flk Kinase % Inhibition (P.110)” value is listed as 3.1%.

Regarding `CCc1ccc(C=C2C(=O)Nc3ccc(Br)c(C)c32)cc1` [10736/C09], the “Flk Kinase % Inhibition (P.110)” value is given as 11.2%.

As to `COc1cccc(C=C2C(=O)Nc3ccc(Br)c(C)c32)c1` [10736/C10], the “Flk Kinase % Inhibition (P.110)” value stood at 1.1%.

Consider `Cc1c(Br)ccc2c1C(=Cc1ccccc1Cl)C(=O)N2` [10736/C11], for which the “Flk Kinase % Inhibition (P.110)” value amounted to 7.2%.

As for `CNS(=O)(=O)c1ccc2c(c1)C(=Cc1ccc(Cl)cc1)C(=O)N2` [10736/D02], the “Flk Kinase % Inhibition (P.110)” value came out at 5.8%.

For the molecule `CNS(=O)(=O)c1ccc2c(c1)C(=Cc1ccccc1C(F)(F)F)C(=O)N2` [10736/D03], the “Flk Kinase % Inhibition (P.110)” value is on record as 5.4%.

Regarding `CNS(=O)(=O)c1ccc2c(c1)C(=Cc1cccc(C)c1)C(=O)N2` [10736/D04], the “Flk Kinase % Inhibition (P.110)” value amounted to 4.3%.

As for `CNS(=O)(=O)c1ccc2c(c1)C(=Cc1ccc(C)cc1)C(=O)N2` [10736/D05], the “Flk Kinase % Inhibition (P.110)” value is listed as 15.2%.
